Measured values published in patent US7771967B2, “Nucleic acid encoding apolipoprotein E-I3” (The J. David Gladstone Institutes, priority 2006, dated 2010).

How the values were obtained:
apoE-I3 mRNA = assay: qRT-PCR of apoE-I3 in hippocampus and cortex of kainic acid-treated mice; type: in vivo, mouse; details: human apoE knock-in mice, n=3
Experimental: ApoE-I3 and apoE mRNA levels in different samples were determined in duplicate by quantitative fluorogenic reverse transcription-PCR (qRT-PCR) using GAPDH mRNA as an internal control. RT reactions were performed with Superscript First-strand Synthesis System Kits (Invitrogen, Carlsbad, Calif.) as described earlier. qRT-PCR reactions consisted of 10 μl of diluted cDNA reaction mixture (equivalent to 4.0 ng of RNA template), 12.5 μl of SYBR Green PCR master mix (Applied Biosystems), and 300 nM of each forward and backward primer in a final volume of 25 μl. Serial dilution of pooled cDNA samples from all cells or tissues were used to generate standard curves to determine the relative levels of specific mRNAs in individual samples. The apoE-I3 mRNA levels were then calculated and normalized to the internal GAPDH mRNA standards.
(§1) Kainic acid injections. Kainic acid crosses the blood-brain barrier and induces excitotoxic CNS injury, particularly in the hippocampus and neocortex. Wildtype and human apoE3 or apoE4 knock-in mice at 4-6 months of age were injected intraperitoneally with kainic acid (Sigma) dissolved in saline (0.9%) at 25 mg/kg body weight in one dose, as described. Within ˜15 min, all mice developed seizures. Seizure activity was assessed as described. […] Mice were killed 1-6 days after the injection of kainic acid.
Preparation of mouse brain tissues. […]

[1] = Kainic acid injection, seizure activity in mice; type: in vivo, mouse; details: 25 mg/kg intraperitoneally, wildtype and human apoE3 or apoE4 knock-in mice, all mice
Experimental: as §1

With `C=C(C)[C@H]1CN[C@H](C(=O)O)[C@H]1CC(=O)O` [kainic acid, Kainic acid] the “increase of apoE-I3 expression (qRT-PCR)” value (apoE-I3 mRNA; cortex) was “not in the cortex”, the “increase of apoE-I3 expression (qRT-PCR)” value (apoE-I3 mRNA; hippocampus) was “twofold” and the “time from injection to seizures” value [1] was no more than 15 min.
